{
  "source": "patent EP3623369A1",
  "about": "“NOVEL MORPHOLINYL AMINE COMPOUNDS FOR THE TREATMENT OF AUTOIMMUNE DISEASE” (F. Hoffmann-La Roche AG, priority 2018, dated 2020)",
  "origin": "cited, not measured here",
  "biological_target": "T1, hTLR9 (Homo sapiens, UniProt Q9NR96)",
  "T1 sequence (Q9NR96 26-1032)": "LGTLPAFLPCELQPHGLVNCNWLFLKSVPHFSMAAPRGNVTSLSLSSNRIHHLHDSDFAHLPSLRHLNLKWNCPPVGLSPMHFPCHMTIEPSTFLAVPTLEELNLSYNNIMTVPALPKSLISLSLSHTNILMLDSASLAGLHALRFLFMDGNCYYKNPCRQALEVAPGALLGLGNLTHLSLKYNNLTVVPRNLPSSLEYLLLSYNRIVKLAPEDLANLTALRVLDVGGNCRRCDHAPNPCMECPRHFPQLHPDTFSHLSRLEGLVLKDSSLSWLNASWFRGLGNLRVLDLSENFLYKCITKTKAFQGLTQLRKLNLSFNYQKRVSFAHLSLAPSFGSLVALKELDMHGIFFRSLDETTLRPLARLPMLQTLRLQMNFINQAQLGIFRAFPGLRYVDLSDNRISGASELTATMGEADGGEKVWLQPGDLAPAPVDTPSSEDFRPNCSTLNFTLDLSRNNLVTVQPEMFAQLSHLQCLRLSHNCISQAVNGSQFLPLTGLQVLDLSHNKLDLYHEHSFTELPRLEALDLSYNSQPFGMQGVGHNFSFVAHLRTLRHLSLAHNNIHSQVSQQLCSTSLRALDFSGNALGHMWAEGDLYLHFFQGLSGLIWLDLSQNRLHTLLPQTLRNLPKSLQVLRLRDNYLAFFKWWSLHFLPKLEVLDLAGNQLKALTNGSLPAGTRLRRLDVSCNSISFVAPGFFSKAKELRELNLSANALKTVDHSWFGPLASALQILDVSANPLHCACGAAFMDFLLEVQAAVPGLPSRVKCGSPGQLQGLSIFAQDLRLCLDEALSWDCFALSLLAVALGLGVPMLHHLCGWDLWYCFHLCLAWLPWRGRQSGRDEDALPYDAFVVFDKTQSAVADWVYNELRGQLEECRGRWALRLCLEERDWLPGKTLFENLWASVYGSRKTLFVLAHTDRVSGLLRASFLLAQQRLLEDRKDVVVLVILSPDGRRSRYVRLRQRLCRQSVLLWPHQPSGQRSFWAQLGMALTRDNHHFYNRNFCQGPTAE",
  "parameters": "host or cells: HEK",
  "settings": "data disclosed in US20150105370; read-out: HEK/hTLR9 IC50; cited from earlier work",
  "data": [
    {"smiles": "C[C@@H]1CN(c2ccc(C#N)c3ncccc23)C[C@H](CNCc2ccccc2)O1", "note": "[ER-886509, reference compound]", "values": [
      {"measurement": "IC50", "value": 3.94, "unit": "µM"}
    ]}
  ]
}
